Data as given in patent US20070078091A1, “Pharmaceutical combinations for compensating for a testosterone deficiency in men while simultaneously protecting the prostate” (priority 1998, published 2007).

How the values were obtained:
LNCaP prostate cells = experiment: Inhibition of androgen-dependent cell proliferation in LNCaP prostate cells (growth assay, cell number after 7 days); type: cell-based, human; settings: androgen alone, FIG. 1
Text: In the example of the inhibition of the androgen-dependent cell proliferation in LNCaP prostate cells, the biological mechanism of action of the combination of 17β-hydroxy-17α-methyl-estra-4,9,11-trien-3-one (R 1881)+the 17α-cyano-methyl-17β-hydroxy-estra-4,9-dien-3-one (DIENOGEST=DNG) was examined.
To this end, the human prostate cancer cell LNCaP was cultivated under routine conditions in Dulbecco's modified Eagle medium (DMEM) with the addition of 10% FCS (fetal calf serum).
The cells were then cultured for 2 to 6 passages with DMEM and 10% DCC-FCS (steroid-depleted FCS), before it was used in a growth assay with 5% DCC-FCS.
For the test, the cells were saturated in 24-well plates (10,000 cells/well and ml).
After 24 hours, the steroids that were dissolved in ethanol were added to fresh test medium (final concentration of ethanol 0.1%), and the cells were incubated for 7 days at 37° (5% CO2). The cell number was determined after this time in a cell counting and analysis system (CASY, Scharfe System GmbH).

[1] = tested on: prostate of castrated male NMRI mice; experiment: Prostate weights of castrated mice after combined testosterone/gestagen treatment; type: in vivo
Procedure: The inhibition of a prostate growth that was induced by androgens and that was treated with a combination according to the invention, was also examined in the animal experiment.
To this end, 5 male NMRI mice of Møllegaard Breeding Centre Deutschland GmbH, Schönwalde weighing 28-30 g were castrated. Two weeks after the castration, testosterone propionate (TP) by itself—0.1 mg/animal—was administered to the control animals.
Also, two weeks after castration, the test animals were orally treated daily for one week with testosterone propionate (TP) 0.1 mg/animal/day s.c. and simultaneously with the following gestagens and the following dosages:
cyproterone acetate (CPA) at dosages of 0.1; 0.3; 1; 3 mg/animal/day dienogest (DNG) at dosages of 0.3; 1; 3; 10 mg/animal/day, chloromadinone acetate (CMA) at dosages 0.3; 1; 3; 10 mg/animal/day.
At the end of the test, the prostate weights of the mice were determined, and the test groups were compared.

prostate [2] = settings: young men under exogenic testosterone administration; cited from earlier work
prostate [3] = settings: 8-month therapy, 23 men aged 40-65 years, 160 mg/day; cited from earlier work

## C[C@]1(O)CC[C@H]2[C@@H]3CCC4=CC(=O)CCC4=C3C=C[C@@]21C [R1881, 17β-hydroxy-17α-methyl-estra-4,9,11-trien-3-one]
LNCaP prostate cells
  Cell growth of LNCaP cells: induces a cell growth

## CCC(=O)O[C@H]1CC[C@H]2[C@@H]3CCC4=CC(=O)CC[C@]4(C)[C@H]3CC[C@]12C [TP, testosterone propionate]
[1]; 0.1 mg/animal/day
  Effect on prostate weight compared to the castrated and the intact control animals: causes a clear increase of the prostate weight
[1]; TP 0.1 mg/animal alone (TP control), n = 5
  Prostate weight (mean value ± S.D.): 4.4 ± 0.7 mg

## CCCCCCC(=O)O[C@H]1CC[C@H]2[C@@H]3CCC4=CC(=O)CC[C@]4(C)[C@H]3CC[C@]12C [testosterone enanthate]
Prostate [2]
  Prostate size by transrectal ultrasound: an enlargement of the prostate was found

## CCCCCCCCCCC(=O)O[C@H]1CC[C@H]2[C@@H]3CCC4=CC(=O)CC[C@]4(C)[C@H]3CC[C@]12C [testosterone undecanoate]
Prostate [3]
  Increase in size of the prostate: 12%
